In US20220050094A1, “Application of the apparent volume of distribution in extraction technologies and pharmacokinetics” (priority 2020, published 2022):

Experiment: clinical
Conditions: human, in vivo
Source text: We claim that these volumes represent the physiological volumes of extracellular fluid compartments that receive the drug with different kinetic rates. Total exclusion of the drug from intracellular fluids is most plausible considering the highly polar and hydrophilic nature of sisomicin. Alternatively, the peripheral compartment could be considered to be interstitial fluid as a different phase of slightly higher drug affinity, where steric hindrance and binding to the negatively charged components of the extracellular matrix retards drug movement. […] The explicit solutions to the two-compartment model as a function of real time provide estimates of drug concentration upon repeated dosing (U.S. patent application Ser. No. 16/992,658). These drug concentrations at momentary distribution equilibrium (teq) can be used to determine the drug's apparent volume of distribution.
Eq. 21, can be used to assess a substance apparent volume of distribution associated with the phase of the central compartment, but only if the central compartment is a single phase. Using eq. 21, Vd,1 was calculated to be equal to 11.78 L. The equilibrium time of intercompartmental drug distribution teq is calculated from eq.
Eur J Clin Pharmacol. 1976; 10: 251-256. […]

Vd: 11.8 L
Structure (SMILES): CN[C@@H]1[C@@H](O)[C@@H](O[C@@H]2[C@@H](O)[C@H](O[C@H]3OC(CN)=CC[C@H]3N)[C@@H](N)C[C@H]2N)OC[C@]1(C)O [sisomicin]
